Common to all, as to type: in vivo
The subject of one series is mice. The series can be described thus: Determination of acute toxicity in mice after intravenous administration. Particulars: 35 mg/kg i.v., observation period 14 days. On the procedure: (§1) The acute toxicity of the test compound was determined in mice (observationperiod: 14 days) after intravenous administration.
Assay in series [1]: as above
The following applies: mouse, in vivo, iv, observation period 14 days. As to the method: as §1

A further series relates to blood circulation. The series can be described thus: Effect on blood circulation in anesthetized dogs (i.v.). Particulars: for Effect on average arterial blood pressure (first figure of the pair): figure before the slash; for Decrease in contractility dp/dt max: left ventricle. Also noted: Duration: unit not given here. As to the method: The blood circulation tests were carried out on dogs with a body weight of 18-29 kg under chloraloseurethane-nembutal anesthesia (54+270+10 mg/kg i.v.). After opening the thorax in the 4th left intercostal space the animals were ventilated with room air by means of a Harvard respirator. The arterial blood pressure was measured in the arteria carotis by a Statham pressure transducer; the heart rate was measured electronically from the sequence of the R-peaks of the electrocardiogram. The maximum rate of pressure increase ([…]) in the left ventricula was measured by means of a Konigsberg pressure received and a Grass differential amplifier. All parameters were recorded by means of a direct-writer. For anticoagulation the animals were injected i.v. with a solution of 10 mg/kg of sodium polyethylenesulfonate in 20% polydiol. The test compounds were administered intravenously to groups of 3 to 4 dogs.

For `COc1ccc2nc(-c3ccc(OCC(O)CN(C)CCc4ccc(OC)c(OC)c4)cc3)n(C)c(=O)c2c1.Cl.Cl` (centres unmarked) [B, 2-{4-[2-Hydroxy-3-(2-(3,4-dimethoxy-phenyl)-N-methylethylamino)-propoxy]-phenyl}-3-methyl-6-methoxy-3,4-dihydro-quinazolin-4-one dihydrochloride], the “Acute toxicity: animals died” value in the series with mice is reported as 0 out of 5. Also, the LD50 at 336 h in series [1] is > 35 mg/kg. In addition, in the series with blood circulation (1.0 mg/kg i.v.), the “Decrease in heart rate” value was -28 min⁻¹, the Duration came out at 45, the “Effect on average arterial blood pressure (first figure of the pair)” value (“Effect … (first figure of the pair)” below) is given as -16 mm Hg and the “Decrease in contractility dp/dt max” value is reported as -17.
Consider `COc1ccc2nc(-c3ccc(OCC(O)CNCCc4ccccc4OC)cc3)n(C)c(=O)c2c1.Cl.Cl` (centres unmarked) [C, 2-{4-[2-Hydroxy-3-(2-(2-methoxy-phenyl)-ethylamino)-propoxy]-phenyl}-3-methyl-6-methoxy-3,4-dihydroquinazolin-4-one dihydrochloride], for which, in the series on mice, the “Acute toxicity: animals died” value is 0 out of 5. For the same compound, the LD50 at 336 h in series [1] was > 35 mg/kg. Also, in the series on blood circulation (1.0 mg/kg i.v.), the “Decrease in heart rate” value was -22 min⁻¹, the Duration is on record as > 36, the “Effect … (first figure of the pair)” value is on record as “+1 mm Hg” and the “Decrease in contractility dp/dt max” value is reported as -14.
On to `COc1ccc2nc(-c3ccc(OCC(O)CNC(C)(C)C)cc3)n(C)c(=O)c2c1` (centres unmarked) [Compound A, 2-[4-(2-Hydroxy-3-tert.butylamino-propoxy)-phenyl]-3-methyl-6-methoxy-3,4-dihydro-quinazolin-4-one], for which the “Acute toxicity: animals died” value with mice is listed as 0 out of 5. The LD50 at 336 h in series [1] is > 35 mg/kg. In the series on blood circulation (0.5 mg/kg i.v.), the “Decrease in heart rate” value is -21 min⁻¹, the Duration was > 55, the “Effect … (first figure of the pair)” value is reported as -20 mm Hg and the “Decrease in contractility dp/dt max” value is -33. Moreover, in the series on blood circulation (0.5 mg/kg i.v., figure after the slash), the “Effect on average arterial blood pressure (second figure of the pair)” value was -8 mm Hg.
As for `COc1ccc2nc(-c3ccc(OCC(O)CNC(C)C)cc3)n(C)c(=O)c2c1` (centres unmarked) [D, 2-[4-(2-Hydroxy-3-isopropylamino-propoxy)-phenyl]-3-methyl-6-methoxy-3,4-dihydro-quinazolin-4-one], in the series with blood circulation (1.0 mg/kg i.v.), the “Decrease in heart rate” value is -30 min⁻¹, the Duration is > 40, the “Effect … (first figure of the pair)” value is recorded as -5 mm Hg and the “Decrease in contractility dp/dt max” value is -27.
Turning to `COc1cc2nc(-c3ccc(OCC(O)CNCCOc4ccccc4C)cc3)n(C)c(=O)c2cc1OC` (centres unmarked) [E, 2-{4-[2-Hydroxy-3-(2-(2-methyl-phenoxy)-ethylamino)-propoxy]-phenyl}-3-methyl-6,7-dimethoxy-3,4-dihydroquinazolin-4-one], the “Acute toxicity: animals died” value in the series on mice was 0 out of 5. In addition, in series [1], the LD50 at 336 h is > 35 mg/kg. Further, in the series on blood circulation (1.0 mg/kg i.v.), the “Decrease in heart rate” value was -11 min⁻¹, the Duration is reported as > 36, the “Effect … (first figure of the pair)” value is reported as -13 mm Hg and the “Decrease in contractility dp/dt max” value was -14.
For `COc1cccc2c(=O)n(C)c(-c3ccc(OCCCNCC(O)COc4cccc(C)c4)cc3)nc12` (centres unmarked) [F, 2-{4-[3-(2-Hydroxy-3-(3-methyl-phenoxy)-propylamino)-propoxy]-phenyl}-3-methyl-8-methoxy-3,4-dihydroquinazolin-4-one], the “Acute toxicity: animals died” value with mice is on record as 0 out of 5. In addition, the LD50 at 336 h in series [1] is > 35 mg/kg. Moreover, in the series on blood circulation (1.0 mg/kg i.v.), the “Decrease in heart rate” value is -23 min⁻¹, the Duration was > 63, the “Effect … (first figure of the pair)” value is -11 mm Hg and the “Decrease in contractility dp/dt max” value is on record as -23.

(Values after US4379788A, “2-Phenyl-pyrimidones” (Dr. Karl Thomae Gesellschaft mit beschrankter Haftung, priority 1980, dated 1983).)
